# Reference: patent US8815882B2, “Pyrazole aminopyrimidine derivatives as LRRK2 modulators” (Genentech, Inc., priority 2010, dated 2014)
# Molecular target: T1, LRRK2 (Homo sapiens, UniProt Q5S007, G2019S)
# T1 construct: purchased Invitrogen PV4882 (lot 567054A)
# Experiment: In Vitro LRRK2 Assay (LabChip 3000, fluorescently-labeled peptide substrate, ATP)
# Assay type: biochemical
# Details: read-out: LRRK2 Ki (KI), Table 8
# Summary of the method: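 LRRK2, fluorescent peptide substrate (diluted to 4 μM before mixing), ATP and compound were incubated 2 h in the dark, then stopped. Phosphorylated and unphosphorylated peptide were separated by capillary electrophoresis and quantified by fluorescence. Ki was fitted with a tight-binding equation including enzyme concentration, S and Km; IC50 or percent inhibition were also reported.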
# T1 sequence (Q5S007 whole entry G2019S): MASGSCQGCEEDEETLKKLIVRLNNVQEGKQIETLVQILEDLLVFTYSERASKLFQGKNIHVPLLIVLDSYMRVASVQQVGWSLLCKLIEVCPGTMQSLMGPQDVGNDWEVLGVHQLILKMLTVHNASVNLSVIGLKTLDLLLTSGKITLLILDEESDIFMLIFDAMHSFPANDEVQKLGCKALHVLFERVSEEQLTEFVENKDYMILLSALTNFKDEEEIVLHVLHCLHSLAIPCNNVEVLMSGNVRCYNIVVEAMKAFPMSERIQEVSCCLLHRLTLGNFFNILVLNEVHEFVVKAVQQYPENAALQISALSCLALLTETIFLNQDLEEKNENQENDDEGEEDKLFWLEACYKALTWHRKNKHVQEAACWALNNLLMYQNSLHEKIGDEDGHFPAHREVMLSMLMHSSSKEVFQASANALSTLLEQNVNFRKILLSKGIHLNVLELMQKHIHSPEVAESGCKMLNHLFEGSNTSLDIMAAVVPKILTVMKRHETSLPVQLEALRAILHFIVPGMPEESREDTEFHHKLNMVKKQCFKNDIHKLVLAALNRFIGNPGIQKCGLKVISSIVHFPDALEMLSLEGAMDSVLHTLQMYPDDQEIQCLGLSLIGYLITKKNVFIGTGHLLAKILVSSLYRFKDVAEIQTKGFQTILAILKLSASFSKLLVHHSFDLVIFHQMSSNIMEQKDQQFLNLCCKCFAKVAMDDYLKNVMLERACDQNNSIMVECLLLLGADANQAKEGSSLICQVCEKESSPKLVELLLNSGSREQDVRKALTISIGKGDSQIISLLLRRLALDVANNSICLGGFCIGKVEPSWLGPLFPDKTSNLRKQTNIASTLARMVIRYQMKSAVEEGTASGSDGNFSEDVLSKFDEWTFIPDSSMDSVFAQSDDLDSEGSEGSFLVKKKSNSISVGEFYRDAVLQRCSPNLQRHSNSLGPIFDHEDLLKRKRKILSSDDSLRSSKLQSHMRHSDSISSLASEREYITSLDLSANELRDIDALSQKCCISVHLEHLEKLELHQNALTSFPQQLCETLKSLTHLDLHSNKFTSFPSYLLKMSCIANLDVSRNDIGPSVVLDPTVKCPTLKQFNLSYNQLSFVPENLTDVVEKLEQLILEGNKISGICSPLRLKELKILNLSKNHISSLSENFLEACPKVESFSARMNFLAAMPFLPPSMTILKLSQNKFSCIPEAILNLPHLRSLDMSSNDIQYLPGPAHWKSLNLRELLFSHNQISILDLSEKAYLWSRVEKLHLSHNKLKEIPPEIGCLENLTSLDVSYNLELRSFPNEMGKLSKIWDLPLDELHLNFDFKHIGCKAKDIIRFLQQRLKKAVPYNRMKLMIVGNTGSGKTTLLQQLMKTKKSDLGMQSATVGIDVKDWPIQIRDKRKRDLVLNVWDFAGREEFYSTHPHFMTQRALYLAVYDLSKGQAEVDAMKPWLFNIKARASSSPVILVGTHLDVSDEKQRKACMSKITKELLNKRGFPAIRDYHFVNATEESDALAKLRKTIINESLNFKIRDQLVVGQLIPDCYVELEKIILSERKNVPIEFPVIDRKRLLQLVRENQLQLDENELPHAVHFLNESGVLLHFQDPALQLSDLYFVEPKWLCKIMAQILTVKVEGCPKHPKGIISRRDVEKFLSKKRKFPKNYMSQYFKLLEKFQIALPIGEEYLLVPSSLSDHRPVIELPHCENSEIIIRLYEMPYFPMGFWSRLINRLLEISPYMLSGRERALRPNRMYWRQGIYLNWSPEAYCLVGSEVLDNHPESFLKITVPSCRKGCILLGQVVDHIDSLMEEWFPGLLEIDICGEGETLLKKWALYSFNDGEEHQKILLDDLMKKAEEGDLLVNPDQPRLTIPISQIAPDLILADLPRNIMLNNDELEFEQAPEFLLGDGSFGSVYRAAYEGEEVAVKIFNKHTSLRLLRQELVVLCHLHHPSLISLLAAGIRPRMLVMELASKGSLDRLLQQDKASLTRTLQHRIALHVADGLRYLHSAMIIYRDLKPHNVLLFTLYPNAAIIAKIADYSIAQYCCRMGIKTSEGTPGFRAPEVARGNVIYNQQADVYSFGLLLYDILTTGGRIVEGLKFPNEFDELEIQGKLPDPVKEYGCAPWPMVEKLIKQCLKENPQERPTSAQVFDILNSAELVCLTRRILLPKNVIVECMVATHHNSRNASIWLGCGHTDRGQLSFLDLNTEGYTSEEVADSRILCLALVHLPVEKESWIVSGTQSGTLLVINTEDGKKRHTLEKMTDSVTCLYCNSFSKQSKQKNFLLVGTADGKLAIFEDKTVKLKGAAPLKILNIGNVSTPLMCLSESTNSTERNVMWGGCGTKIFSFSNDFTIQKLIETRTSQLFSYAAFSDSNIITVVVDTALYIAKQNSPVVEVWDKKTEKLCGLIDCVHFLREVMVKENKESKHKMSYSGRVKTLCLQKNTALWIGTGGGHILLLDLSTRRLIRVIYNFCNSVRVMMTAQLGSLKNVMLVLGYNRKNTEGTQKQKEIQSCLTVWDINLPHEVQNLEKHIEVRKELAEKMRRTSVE
row,Compound,Ki [nM]
1,"CNc1nc(Nc2cn(C3CN(C(C)C)C3)nc2C)ncc1C(F)(F)F [Example 214, N2-(1-(1-isopropylazetidin-3-yl)-3-methyl-1H-pyrazol-4-yl)-N4-methyl-5-(trifluoromethyl) pyrimidine-2,4-diamine]",64
2,"CNc1nc(Nc2cnn(C)c2C#N)ncc1C(F)(F)F [Example 215, 1-methyl-4-(4-(methylamino)-5-(trifluoromethyl)pyrimidin-2-ylamino)-1H-pyrazole-5-carbonitrile]",3.2
3,"CCNc1nc(Nc2cn(S(=O)(=O)C(C)C)nc2C)ncc1C(F)(F)F [Example 216, N4-ethyl-N2-(1-(isopropylsulfonyl)-3-methyl-1H-pyrazol-4-yl)-5-(trifluoromethyl) pyrimidine-2,4-diamine]",3.9
4,"CNc1nc(Nc2cn(S(=O)(=O)C(C)C)nc2C)ncc1C(F)(F)F [Example 217, N2-(1-(isopropylsulfonyl)-3-methyl-1H-pyrazol-4-yl)-N4-methyl-5-(trifluoromethyl) pyrimidine-2,4-diamine]",9.9
5,"CNc1nc(Nc2cnn(S(=O)(=O)C(C)C)c2C)ncc1C(F)(F)F [Example 218, N2-(1-(isopropylsulfonyl)-5-methyl-1H-pyrazol-4-yl)-N4-methyl-5-(trifluoromethyl) pyrimidine-2,4-diamine]",8.1
6,"CCC(C)S(=O)(=O)n1ncc(Nc2ncc(C(F)(F)F)c(NC)n2)c1C (stereo not drawn) [Example 219, N2-(1-(sec-butylsulfonyl)-5-methyl-1H-pyrazol-4-yl)-N4-methyl-5-(trifluoromethyl) pyrimidine-2,4-diamine]",6.7
7,"CCC(C)S(=O)(=O)n1cc(Nc2ncc(C(F)(F)F)c(NC)n2)c(C)n1 (stereo not drawn) [Example 220, N2-(1-(sec-butylsulfonyl)-3-methyl-1H-pyrazol-4-yl)-N4-methyl-5-(trifluoromethyl) pyrimidine-2,4-diamine]",11.7
8,"CCNc1nc(Nc2cn(CC(C)(C)O)nc2C(C)C)ncc1C(F)(F)F [Example 221, 1-(4-(4-(ethylamino)-5-(trifluoromethyl)pyrimidin-2-ylamino)-3-isopropyl-1H-pyrazol-l-yl)-2-methylpropan-2-ol]",6.1
9,"CNc1nc(Nc2cn(C3CCN(C)CC3F)nc2C)ncc1C(F)(F)F (stereo not drawn) [Example 222, N2-(1-(3-fluoro-1-methylpiperidin-4-yl)-3-methyl-1H-pyrazol-4-yl)-N4-methyl-5-(trifluoromethyl) pyrimidine-2,4-diamine]",1.6
10,"CNc1nc(Nc2cnn(C)c2C(C)C)ncc1C(F)(F)F [Example 223, N2-(5-isopropyl-1-methyl-1H-pyrazol-4-yl)-N4-methyl-5-(trifluoromethyl) pyrimidine-2,4-diamine]",14
11,"CNc1nc(Nc2cn(C(C)c3ccccn3)nc2C)ncc1C(F)(F)F (stereo not drawn) [Example 224, N4-methyl-N2-(3-methyl-1-(1-(pyridin-2-yl)ethyl)-1H-pyrazol-4-yl)-5-(trifluoromethyl) pyrimidine-2,4-diamine]",2.4
12,"CNc1nc(Nc2cnn(C(C)c3ccccn3)c2C)ncc1C(F)(F)F (stereo not drawn) [Example 225, N4-methyl-N2-(5-methyl-1-(1-(pyridin-2-yl)ethyl)-1H-pyrazol-4-yl)-5-(trifluoromethyl) pyrimidine-2,4-diamine]",3.8
13,"CNc1nc(Nc2cnn(C3CCOCC3)c2Cl)ncc1C(F)(F)F [Example 226, N2-(5-chloro-1-(tetrahydro-2H-pyran-4-yl)-1H-pyrazol-4-yl)-N4-methyl-5-(trifluoromethyl) pyrimidine-2,4-diamine]",0.7
14,"CNc1nc(Nc2cn(C)nc2C(C)C)ncc1C(F)(F)F [Example 227, N2-(3-isopropyl-1-methyl-1H-pyrazol-4-yl)-N4-methyl-5-(trifluoromethyl) pyrimidine-2,4-diamine]",69
15,"CNc1nc(Nc2cn(C)nc2C2CCC2)ncc1C(F)(F)F [Example 228, N2-(3-cyclobutyl-1-methyl-1H-pyrazol-4-yl)-N4-methyl-5-(trifluoromethyl) pyrimidine-2,4-diamine]",3.4
